Data published in patent publication US4008223A, “6-Aza-3H-1,4-benzodiazepines” (Deutsche Gold- und Silber-Scheideanstalt vormals Roessler, priority 1971, dated 1977).

Key:
[1] = system: mice; experiment: Cardiazol shock (anticonvulsive / anxiolytic effect); assay type: in vivo; conditions: Mus musculus, 1 h, oral, one hour before 150 mg/kg s.c. Cardiazol, 50% of animals with marked anticonvulsive effect
Source text: The compounds of the present invention have a pronounced anxiolytic activity, i.e., they relieve or reduce anxiety. Such activity naturally cannot be measured directly in animals. […] A method for testing whether a compound has anticonvulsive properties and also therewith is anxiolytically active is the Cardiazol-Shock Method.
In order to compare the therapeutic value of the compounds of the present invention with the most closely related compounds in Littell U.S. Pat. No. 3,314,941 and Reeder U.S. Pat. No. 3,371,085 tests were conducted comparing the properties of the compounds of the present application and the Littell and Reeder patents in regard to anxiolytic effect (tested by Cardiazol-Shock).
The Cardiazol shock procedure was carried out according to the method of F.M. Berger et al in J. Pharmacol. Exper. Therap. Vol. 116, pages 337-342 (1956). With mice the subcutaneous injection of 150 mg/kg of Cardiazol first results in short lasting spasms, then long lasting and strong spasms and finally results in the death of all of the animals within 10 to 15 minutes. By the oral administration of the anticonvulsive acting test materials at various dosages one hour prior to the administration of the Cardiazol, the 100% lethal effect of the Cardiazol is reduced depending on the dosage. From the percentage of surviving animals in the individual test groups there was plotted graphically the dosage-effect line and from this the ED50 value was ascertained.

[2] = rotating rod test (ataxic effect); assay type: in vivo, mice; conditions: mouse, rotating rod test; mice; oral; 50% of animals show a typical ataxic effect; read-out: ED50, ataxic effect (rotating rod)
Source text: (§1) Furthermore, there is given in this table the ataxic activity. The ratio of ataxic activity to the anxiolytic activity is of the greatest significance in using a material as an anxiolytic agent. This quotient should be as large as possible since an ataxic activity is undesirable. Ataxic activity means that the coordination of the muscular movements is disturbed -- ataxic disturbance of the muscular coordination. This means at the dosage at which a marked anxiolytic activity is present there should not be found a noteworthy ataxice. The toxicity, in case the data exists above the ataxic activity, is no longer important since the amount which is toxic is always considerably higher than the amount at which 50% (ED50) of the animals have an ataxic effect. The ataxic effect was measured on mice on the pattern of the rotating rod.
(§2) In the rotating rod test the animals (mice) were firest placed on a rotating rod 15 minutes after the application of the test material and then were placed on the rotating rod every 15 minutes and the animals which fell down within 2 minutes measured positive. From the number of animals which fell down expressed in per cent there were drawn time-effect curves and the areas defined by it entered as percent effect in a probability network, the dosage-effect-line prepared and the ED50 read off. The ED50 mg/kg body weight of the mouse again specifies the dosage at which 50% of all the animals show a typical ataxic effect.

[3] = system: mice; experiment: rotating rod test (ataxic effect); assay type: in vivo; conditions: quotient of ED50 ataxia / ED50 Cardiazol shock; should be as large as possible
Source text: as §1, §2

[4] = First Int. Pharmacological Meeting, Vol. 7, pages 311 et seq.; cited from earlier work
[5] = literature; cited from earlier work
[6] = on introduction of p-chlorine and alpha-methyl; literature; cited from earlier work

| SMILES | ED50 [1] [mg/kg] | TD50 [2] [mg/kg] | ratio of ataxic activity to the anxiolytic activity [3] | stimulating activity [4] | antihistamine activity [5] | anticholinergic activity [6] |
| --- | --- | --- | --- | --- | --- | --- |
| CN1C(=S)CN=C(c2ccccc2Cl)c2nc(Cl)ccc21 [Example 24, 1-Methyl-5-(o-chlorophenyl)-6-aza-7-chloro-1,2-dihydro-3H-1,4-benzodiazepinthione-(2)] | 3.3 | 39 | 12.5 | – | – | – |
| O=C1Nc2ccc(Cl)nc2C(c2ccccc2Cl)=NC1O (stereo not shown) [Example 13, 3-Hydroxy-5-o-chlorophenyl-6-aza-7-chloro-1,2-dihydro-3H-1,4-benzodiazepinone-(2)] | 2.4 | 36 | 15.0 | – | – | – |
| O=C(O)CCC(=O)OC1N=C(c2ccccc2Cl)c2nc(Cl)ccc2NC1=O (stereo not shown) [Example 12] | 7.4 | 100 | 13.5 | – | – | – |
| CC(NN)c1ccccc1 (stereo not drawn) [alpha phenyl-ethyl hydrazine] | – | – | – | strong stimulating activity | – | – |
| CN(C)CCCN1c2ccccc2Sc2ccc(Cl)cc21 [Chlorpromazine] | – | – | – | – | practically no antihistamine activity | – |
| O=C1CN=C(c2ccccc2)c2nc(Cl)ccc2N1 [Example 1, 5-Phenyl-6-aza-7-chloro-1,2-dihydro-3H-1,4-benzodiazepinone-(2)] | 6.3 | 72 | 11.4 | – | – | – |
| CN(C)CCOC(C)(c1ccccc1)c1ccc(Cl)cc1 (stereo not shown) [chlorphenoxamine] | – | – | – | – | reduced | strengthening |
| O=C1CN=C(c2ccccc2)c2nc(Cl)ccc2N1CC1CC1 [Example 19] | 9.75 | 75 | 7.7 | – | – | – |
| CN1C(=O)CN=C(c2ccccc2)c2nc(Cl)ccc21 [Example 17, 1-Methyl-5-phenyl-6-aza-7-chloro-1,2-dihydro-3H-1,4-benzodiazepinone-(2)] | 4.2 | 26 | 6.2 | – | – | – |
| CN1C(=O)CN=C(c2ccccc2Cl)c2nc(Cl)ccc21 [Example 21, 1-Methyl-5-(o-chlorophenyl)-6-aza-7-chloro-1,2-dihydro-3H-1,4-benzodiazepinone-(2)] | 0.98 | 10 | 10.2 | – | – | – |
| O=C1CN=C(c2ccccc2Cl)c2nc(Cl)ccc2N1 [Example 6, 5-(o-Chlorophenyl)-6-aza-7-chloro-1,2-dihydro-3H-1,4-benzodiazepinone-(2)] | 2.72 | 45 | 16.5 | – | – | – |
| C=CCN1C(=O)CN=C(c2ccccc2)c2nc(Cl)ccc21 [Example 18, 1-Allyl-5-phenyl-6-aza-7-chloro-1,2-dihydro-3H-1,4-benzodiazepinone-(2)] | 11 | 90 | 8.2 | – | – | – |
| O=C1CN=C(c2ccccc2F)c2nc(Cl)ccc2N1 [Example 10, 5-(-Fluorophenyl)-6-aza-7-chloro-1,2-dihydro-3H-1,4-benzodiazepinone-(2)] | 1.63 | 17 | 10.4 | – | – | – |
| CC(=O)OC1N=C(c2ccccc2Cl)c2nc(Cl)ccc2N(C(C)=O)C1=O (stereo not shown) [Example 15, 1-Acetyl-3-acetoxy-5-(o-chlorophenyl)-6-aza-7-chloro-1,2-dihydro-3H-1,4-benzodiazepinone-(2)] | 15 | 100 | 6.7 | – | – | – |
| CN1C(=O)CN=C(c2ccccc2F)c2nc(Cl)ccc21 [Example 9, 1-Methyl-5-(o-fluorophenyl)-6-aza-7-chloro-1,2-dihydro-3H-1,4-benzodiazepinone-(2)] | 1.58 | 9.7 | 6.1 | – | – | – |
| CC1N=C(c2ccccc2)c2nc(Cl)ccc2NC1=O (racemic) [Example 4, 3-Methyl-5-phenyl-6-aza-7-chloro-1,2-dihydro-3H-1,4-benzodiazepinone-(2)] | 18 | 78 | 4.3 | – | – | – |
